What was measured:
DDX18 = molecular target: T1, DDX18 (Homo sapiens, UniProt Q9NVP1); experiment: TPP-CCR in living HL-60 cells; assay type: cell-based
T1 construct: endogenous in cells; host or cells: HL-60 (ATCC CCL-240)
T1 sequence (Q9NVP1 1-670): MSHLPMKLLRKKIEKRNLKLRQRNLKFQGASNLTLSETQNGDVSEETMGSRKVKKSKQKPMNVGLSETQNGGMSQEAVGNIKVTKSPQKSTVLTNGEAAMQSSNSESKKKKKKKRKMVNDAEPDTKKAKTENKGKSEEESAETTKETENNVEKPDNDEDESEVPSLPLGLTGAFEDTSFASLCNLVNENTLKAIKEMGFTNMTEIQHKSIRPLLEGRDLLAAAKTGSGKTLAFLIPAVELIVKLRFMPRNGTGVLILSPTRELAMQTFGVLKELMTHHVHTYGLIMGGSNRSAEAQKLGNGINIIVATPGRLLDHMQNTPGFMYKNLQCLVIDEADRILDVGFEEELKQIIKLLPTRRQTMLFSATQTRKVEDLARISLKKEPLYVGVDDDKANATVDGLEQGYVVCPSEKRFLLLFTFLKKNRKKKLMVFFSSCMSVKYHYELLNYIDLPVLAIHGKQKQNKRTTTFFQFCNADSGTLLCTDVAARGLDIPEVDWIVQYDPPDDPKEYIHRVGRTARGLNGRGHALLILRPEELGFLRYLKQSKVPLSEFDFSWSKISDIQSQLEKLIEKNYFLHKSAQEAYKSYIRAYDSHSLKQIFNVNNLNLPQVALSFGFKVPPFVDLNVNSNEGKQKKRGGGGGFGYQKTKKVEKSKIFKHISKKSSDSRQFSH

SCO1 = molecular target: T2, SCO1 (Homo sapiens, UniProt O75880); experiment: TPP-CCR in living HL-60 cells; assay type: cell-based
T2 construct: endogenous in cells; host or cells: HL-60 (ATCC CCL-240)
T2 sequence (O75880 68-301): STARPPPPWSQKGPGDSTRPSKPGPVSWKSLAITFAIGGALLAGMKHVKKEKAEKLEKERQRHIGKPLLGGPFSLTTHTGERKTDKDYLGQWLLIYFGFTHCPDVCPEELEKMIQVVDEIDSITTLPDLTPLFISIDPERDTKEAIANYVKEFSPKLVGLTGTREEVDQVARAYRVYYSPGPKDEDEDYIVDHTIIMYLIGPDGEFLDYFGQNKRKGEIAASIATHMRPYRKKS

[1] = living HL-60 cells, […] °C, TMT-MS

Cc1cnc(Nc2ccc(F)cc2Cl)nc1-c1c[nH]c(C(=O)N[C@H](CO)c2cccc(Cl)c2)c1 [ERK 11e]
Hill slope (DDX18; TPP-CCR, living cells, DDX18): 0.20
Hill slope (DDX18) (DDX18; [1]): 0.20
EC50 (DDX18; living HL-60 cells, […] °C, TMT-MS, read-out: pEC50 (DDX18) (converted)): 200 nM
Hill slope (SCO1; TPP-CCR, living cells, SCO1): 1.25
Hill slope (SCO1) (SCO1; [1]): 1.25
EC50 (SCO1; living HL-60 cells, […] °C, TMT-MS, read-out: pEC50 (SCO1) (converted)): 2820 nM

— publication PMC9147192, “Small Molecule Arranged Thermal Proximity Coaggregation (smarTPCA)—A Novel Approach to Characterize Protein–Protein Interactions in Living Cells by Similar Isothermal Dose–Responses” (International Journal of Molecular Sciences, 2022)
